# Experimental data published in PubChem BioAssay (NCI).
# Where “and” joins values, the source holds several entries; their conditions need not be identical. Equal entries are not always repeated.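 48-hour exposure; five concentrations; linearly interpolated endpoints. GI50 is the concentration that inhibits growth by half. TGI is the concentration that stops growth completely.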
# Assays:
# Assay in all cases: NCI-60 cell line screen, 48 h
# [1] = test system: M14 melanoma
# [2] = test system: LOX IMVI melanoma
# [3] = test system: SNB-19 CNS
# [4] = test system: RXF 393 renal
# [5] = test system: CAKI-1 renal
# [6] = test system: MALME-3M melanoma
# [7] = test system: SK-MEL-5 melanoma
# [8] = test system: BT-549 breast
# [9] = test system: U251 CNS
# [10] = test system: CCRF-CEM leukemia
Structure (SMILES),GI50 [1],TGI [1],GI50 [2],TGI [2],GI50 [3],GI50 [4],TGI [4],GI50 [5],TGI [5],GI50 [6],TGI [6],GI50 [7],TGI [7],GI50 [8],TGI [8],GI50 [9],TGI [9],GI50 [10],TGI [10],TGI [3]
C[n+]1cc2cc3c(cc2c2ccccc21)OCO3,16 µM,> 100 µM,9.11 µM,53.8 µM,1.64 µM,16.4 µM,> 100 µM,46.4 µM,> 100 µM,1.86 µM,5.16 µM,2.71 µM,14.3 µM,2.95 µM,16.3 µM,1.33 µM,11.3 µM,8.71 µM,> 100 µM,
O=C1Nc2ccc(CN3CCOC3=O)cc2/C1=C/c1cc(CN2CCOCC2)c[nH]1,34 µM,> 93.9 µM,48.4 µM,> 100 µM,98.7 µM,18.3 µM,> 72.3 µM,26.3 µM,> 100 µM,> 71.5 µM,> 100 µM,19.5 µM,43.5 µM,23.5 µM,> 79.5 µM,> 75.6 µM,> 100 µM,35.4 µM,> 100 µM,> 100 µM
CCOC(=O)C(O)Cc1cnc2ccccc2n1 (stereo not drawn),,> 100 µM,,> 100 µM,,,> 100 µM,,> 100 µM,,> 100 µM,,> 100 µM,,> 100 µM,,> 100 µM,,> 100 µM,> 100 µM
CCCC(CCC)Oc1ccc(CCCC2=C(O)c3ccccc3C(=O)C2=O)cc1,9.35 µM,22.2 µM,3.34 µM,10.5 µM,,5.75 µM,21.5 µM,2.46 µM,8.66 µM,7.53 µM,23.5 µM,3.14 µM,13.6 µM,8.74 µM,20.9 µM,5.37 µM,17.5 µM,2.9 µM,17.1 µM,
O=C1c2ccccc2C(=O)c2sc(Nc3ccc(Cl)cc3)nc21,,3.96 µM,,2.91 µM,,,3.65 µM,,5.86 µM,,3.25 µM,,3.6 µM,2.87 µM,11.7 µM,,3.55 µM,,4 µM,9.71 µM
Cn1ccc2c3c(=O)cc[nH]c3ccc21,> 100 µM,> 100 µM,> 100 µM,> 100 µM,> 100 µM,> 100 µM,> 100 µM,32.4 µM,95.1 µM,> 100 µM,> 100 µM,> 100 µM,> 100 µM,> 100 µM,> 100 µM,> 100 µM,> 100 µM,> 100 µM,> 100 µM,> 100 µM
c1ccc2c(-c3cnn4cc(-c5ccc(N6CCNCC6)cc5)cnc34)ccnc2c1,0.297 µM,0.962 µM,1.27 µM,2.58 µM,1.25 µM,1.04 µM,2.45 µM,1.35 µM,2.77 µM,1.34 µM,2.92 µM,1.26 µM,2.52 µM,1.6 µM,3.13 µM,0.278 µM,1.08 µM,0.196 µM,0.447 µM,2.56 µM
O=C(c1ccccc1)c1ccc(O)c2ncccc12,2.7 µM,19.5 µM,1.87 µM,13.1 µM,6.54 µM,3.18 µM,19.6 µM,1.13 µM,6.3 µM,5.1 µM,46.4 µM,4.72 µM,26.6 µM,5.96 µM,68.5 µM,5.93 µM,26.2 µM,3.64 µM,> 100 µM,> 100 µM
CNC(C)[C@H]1CCC2C3CCC4C[C@@H](N(C)C(=O)c5ccccc5)CC[C@]4(C)C3CC[C@@]21C (stereo partly drawn),1.3 µM,2.95 µM,0.419 µM,1.8 µM,2.88 µM,1.73 µM,4.26 µM,1.54 µM,5.13 µM,1.6 µM,3.99 µM,0.613 µM,2.02 µM,2.26 µM,8.35 µM,1.25 µM,5.4 µM,0.763 µM,3.4 µM,8.36 µM
Cc1[nH]c(=O)nc(N/N=C/c2ccc(Cl)cc2)c1C(=O)Nc1ccc(Cl)cc1,,40.3 µM,,> 90.8 µM,,,32.9 µM,,> 90.9 µM,,55.2 µM,,48.4 µM,,> 100 µM,,23.5 µM,,> 100 µM,> 15.8 µM
Nc1cc(N)cc(Cc2ccccc2)c1,,> 100 µM,,> 100 µM,,,> 100 µM,,> 100 µM,,> 100 µM,,> 100 µM,,> 100 µM,,> 100 µM,,> 100 µM,> 100 µM
O=C(O)c1cc2cc(O)ccc2[nH]1,> 100 µM,> 100 µM,> 100 µM,> 100 µM,> 100 µM,> 100 µM,> 100 µM,> 100 µM,> 100 µM,> 100 µM,> 100 µM,> 100 µM,> 100 µM,> 100 µM,> 100 µM,> 100 µM,> 100 µM,> 100 µM,> 100 µM,> 100 µM
Clc1ccc(-c2nc(C(Cl)Cl)nc3cc(-c4ccccc4)nn23)cc1,,,> 50 µM,> 50 µM,1.49 µM,0.813 µM,1.87 µM,,,2 µM,> 50 µM,> 50 µM,> 50 µM,> 50 µM,> 50 µM,1.12 µM,> 50 µM,> 50 µM,> 50 µM,> 50 µM
CSC(=NC#N)S/C=C/C(=O)c1cccc2ccccc12,29.9 µM,> 100 µM,20.5 µM,> 100 µM,43 µM,32.3 µM,> 100 µM,14.7 µM,33.9 µM,15.8 µM,38.6 µM,23.1 µM,55.4 µM,20.1 µM,56 µM,31.3 µM,> 100 µM,27.1 µM,> 100 µM,> 100 µM
CCOC(=O)Nc1ccc(C(=O)/C=C/c2ccccc2)cc1,19.1 µM,44.3 µM,8.7 µM,33.1 µM,26.4 µM,22.5 µM,49.1 µM,79 µM,> 100 µM,77.4 µM,> 100 µM,27.1 µM,> 100 µM,26.5 µM,67.8 µM,12.6 µM,30.4 µM,36.9 µM,> 100 µM,> 100 µM
CC(=O)[O][Hg][CH2]C1(C)COC(C)([CH2][Hg][O]C(C)=O)CO1 (stereo not drawn),13.6 µM,27.4 µM,1.21 µM,2.67 µM,16.1 µM,1.45 µM,7.08 µM,0.805 µM,2.42 µM,4.66 µM,9.23 µM,13.4 µM,26.5 µM,1.76 µM,3.64 µM,1.44 µM,2.79 µM,0.306 µM,1.72 µM,30 µM
CC(C)C[C@H]1C(=O)N2CCC[C@H]2[C@]2(O)O[C@](NC(=O)[C@@H]3C=C4c5cccc6[nH]c(Br)c(c56)C[C@H]4N(C)C3)(C(C)C)C(=O)N12,,> 100 µM,,> 100 µM,,,> 100 µM,,> 100 µM,,> 100 µM,,> 100 µM,,> 100 µM,,> 100 µM,,> 100 µM,> 100 µM
CCCCCCCC(=O)NS(=O)(=O)c1ccccc1,,> 100 µM,,> 100 µM,,,,,> 100 µM,,> 100 µM,,> 100 µM,,> 100 µM,,> 100 µM,,> 100 µM,> 100 µM
COc1ccc(Nc2ncc(-c3ccccc3)o2)cc1OC,> 22.9 µM,> 25 µM,11.6 µM,> 25 µM,> 25 µM,6.03 µM,> 19.5 µM,7.02 µM,> 25 µM,> 25 µM,> 25 µM,> 25 µM,> 25 µM,18.6 µM,> 25 µM,11.2 µM,> 25 µM,13.9 µM,> 25 µM,> 25 µM
COC(=O)[C@@H]1[C@H](O)[C@H](C)[C@H](O)[C@H](C)/C=C\C=C(C)C(=O)Nc2c(C)c(OC(C)=O)c3c(c2O)C(=O)C(C)=C2OCOC(=C23)C(C)=C[C@@](C)(O)[C@H](O)[C@@H](C)[C@H]1OC(C)=O,,> 100 µM,,> 100 µM,,,> 100 µM,,,,> 100 µM,,> 100 µM,,> 100 µM,,> 100 µM,,> 100 µM,> 100 µM
C=C1C(=O)O[C@H]2[C@H]1CC/C(COC(=O)C(=O)c1c[nH]c3ccc(Cl)cc13)=C\CC[C@@]1(C)O[C@@H]21,1.59 µM,3.62 µM,0.183 µM,0.396 µM,3.22 µM,1.4 µM,2.79 µM,2.81 µM,10.9 µM,1.74 µM,3.47 µM,1.86 µM,3.41 µM,1.38 µM,3.19 µM,1.9 µM,3.45 µM,0.375 µM,10.1 µM,10.8 µM
N#CSCC1CC(O)(c2ccccc2)CC(c2ccc(Cl)cc2)O1 (stereo not drawn),1.75 µM,3.28 µM,1.59 µM,2.95 µM,6.9 µM,1.94 µM,3.72 µM,3.2 µM,9.51 µM,2.65 µM,7.35 µM,0.559 µM,14.9 µM,2.35 µM,4.83 µM,2.64 µM,9.03 µM,2.55 µM,11.2 µM,19.7 µM
COc1cc2oc(-c3cccc(C(=O)Nc4ccc(C)cc4)c3)cc(=O)c2c(OC)c1OC,0.503 µM,2.23 µM,0.32 µM,3.97 µM,6.49 µM,0.775 µM,5.91 µM,0.315 µM,3.22 µM,,,1.03 µM,2.42 µM,1.71 µM,54.5 µM,3.26 µM,> 100 µM,4.38 µM,> 100 µM,> 100 µM
CC(=O)OC1CC2(O)C(CCC3(C)C(c4ccc(=O)oc4)CCC32O)C2(C)CCC(OC3OC(CO)C(O)C(O)C3O)C=C12 (stereo not drawn),0.0356 µM,0.129 µM,0.0275 µM,0.109 µM,0.0461 µM,0.0199 µM,0.0538 µM,0.0306 µM,0.131 µM,0.0245 µM,0.0593 µM,0.0196 µM,0.0672 µM,0.0101 µM,0.0661 µM,0.0348 µM,0.136 µM,< 0.01 µM,0.115 µM,0.165 µM
Cc1ccc(S(=O)(=O)NNC(C[N+](=O)[O-])c2ccccc2)cc1 (stereo not drawn),,> 100 µM,,> 100 µM,,,11.2 µM,,47.7 µM,,71.3 µM,,36.7 µM,,34.3 µM,,60.5 µM,,> 100 µM,30.4 µM
COc1cccc2c1C(=O)c1c(O)c3c(c(O)c1C2=O)C[C@@](O)(C(C)=O)C[C@@H]3OC1CC(O)C(O)C(C)O1 (stereo partly drawn),2.7 µM,18 µM,,3.77 µM and 2.6 µM,,,9.33 µM,,5.57 µM and 4.94 µM,,6.66 µM and 5.96 µM,,5.06 µM and 2.78 µM,,20.1 µM,,,,1.98 µM and 2.06 µM,8.41 µM and 20.5 µM
COC1C(O)CC(OC2CC(OC3CC(O[C@@H]4C(=O)c5c(cc6cc(OC7CC(OC8CC(O)C(O)C(C)O8)C(O)C(C)O7)c(C)c(O)c6c5O)C[C@H]4[C@H](OC)C(=O)[C@@H](O)[C@@H](C)O)OC(C)C3O)OC(C)C2O)OC1C (stereo partly drawn),,0.116 µM,0.0164 µM,> 100 µM,,,,,> 100 µM,,0.243 µM,,0.032 µM,,11.2 µM,,> 9.45 µM,0.0329 µM,> 100 µM,> 11.1 µM
C/C(=C1/N=C(c2ccccc2)OC1=O)c1ccccc1,,> 100 µM,,> 100 µM,,,,,> 100 µM,,> 100 µM,,> 100 µM,,> 100 µM,,> 100 µM,,> 100 µM,> 100 µM
COc1ccccc1Nc1nc2ccccc2c2occc12,17.3 µM,40.4 µM,9.28 µM,17.4 µM,14.5 µM,13.1 µM,23.9 µM,18 µM,> 50 µM,,,12.2 µM,27.7 µM,15.3 µM,32.1 µM,14.5 µM,> 50 µM,27.9 µM,> 50 µM,> 50 µM
